This is an account of results in paper PMC6572184, “New γ-Halo-δ-lactones and δ-Hydroxy-γ-lactones with Strong Cytotoxic Activity” (Molecules, 2019).

The test system of one data set is Escherichia coli ATCC 8739. Briefly: Bactericidal activity, CFU counting method. Format: cell-based. Conditions: E. coli ATCC 8739; 18 h at 37 °C; Control 9.47, Control with DMSO 9.30. How it is done: (§1) The bacterial cultures: Escherichia coli ATCC 8739 and Staphylococcus aureus ATCC 65389 were grown on Luria–Bertani Agar for 18 h at 37 ^∘ C. The strain suspension was prepared in 0.85% saline, with an optical density equivalent to a 0.5 McFarland standard. Next, the following mixtures were prepared: 180 μ L of sterile enriched broth (BTL), 10 μ L of the bacterial suspension and 10 μ L of the tested compound (range 0.1–50 μ g/mL) solubilized in DMSO. As a negative control, only DMSO was added. As a sterility control, 180 μ L of BTL and 20 μ L saline were used. The microtiter plate was incubated at 37 ^∘ C for 18 h. The colony forming unit (CFU) method was used to evaluate the microbial population. The experiment was repeated three times. Gentamicin was used as the reference antibiotic.
Take `CC1CC(=O)OC(c2ccc(F)cc2)C1I` (stereo not drawn) [9c, Trans,trans-6-(4-fluorophenyl)-tetrahydro-5-iodo-4-methylpyran-2-one]: the “Number of CFU/mL (× 10^7)” value is given as 2.43 × 10^7 CFU/mL.

In the case of `CC1CC(=O)OC(c2ccccc2)C1Cl` (stereo not drawn) [5b, Trans,trans-5-chloro-tetrahydro-4-methyl-6-phenylpyran-2-one], the “Number of CFU/mL (× 10^7)” value is listed as 4.06 × 10^7 CFU/mL.

Staying with this data set, now noted: E. coli ATCC 8739; versus control.
With `CC1CC(=O)OC(c2ccc(F)cc2)C1I` (stereo not drawn) [9c, Trans,trans-6-(4-fluorophenyl)-tetrahydro-5-iodo-4-methylpyran-2-one], the “less CFU/mL (reduction of the number of CFU/mL)” value was 70–78%.

For a further data set, the system named is Staphylococcus aureus ATCC 65389. Briefly: Bactericidal activity, CFU counting method. Format: cell-based. Conditions: S. aureus ATCC 65389; 18 h at 37 °C; Control 21.36, Control with DMSO 20.85. The procedure: as §1
Consider `CC1CC(=O)OC(c2ccc(F)cc2)C1I` (stereo not drawn) [9c, Trans,trans-6-(4-fluorophenyl)-tetrahydro-5-iodo-4-methylpyran-2-one], for which the “Number of CFU/mL (× 10^7)” value is given as 9.76 × 10^7 CFU/mL.

As for `CC1CC(=O)OC(c2ccccc2)C1Cl` (stereo not drawn) [5b, Trans,trans-5-chloro-tetrahydro-4-methyl-6-phenylpyran-2-one], the “Number of CFU/mL (× 10^7)” value was 7.63 × 10^7 CFU/mL.

Tested on in a further data set: not listed separately
Briefly: MTT reduction cytotoxicity assay. Format: cell-based, human. Conditions: human, AGS cells (human gastric adenocarcinoma), 0.1 μg/mL, 24 h, read-out: mean percentage of viable cells ± SD. The procedure:
(§2) Cell cultures: The L929 mouse fibroblasts and human gastric adenocarcinoma cell line AGS were used for in vitro cytotoxicity assays. The cells were maintained under standard conditions (37 ^∘ C, 5% CO 2 ) in 25 cm^2 tissue culture flasks in RPMI-1640 medium supplemented with 10% fetal bovine serum (FBS) and antibiotics: 100 U/mL penicillin and 100 μ g/mL streptomycin. The cell suspension containing 10 ^8 cells in 1 mL, was obtained by treatment of confluent monolayers with 0.25% trypsin solution, washed and subcultured. Cell cultures were supplemented with medium to maintain them in log phase growth. The viability of the cells was assessed by exclusion of trypan blue dye.
(§3) Measurements of cellular metabolic activity and global growth inhibition: L929 cells were seeded into 96-well plates (2 × 10 ^5 cells/well) for 24 h, at 37 ^∘ C, 5% CO2 . Tested compounds 5a–c, 6a–c, 7a–c, 8a–c, 9b,c, 10b,c, 12a and 13a were diluted serially in RPMI-1640 medium in concentrations of 50, 20, 10, 5, 0.5 and 0.1 μ g/mL, added to the cells (100 μ L/well), and incubated under standard conditions for 24 h. The potential harmful effect of lactones on L929 and AGS cells was assessed by the ability of the cells to reduce 3-(4,5-dimethylthiazol-2-yl)-2,5-diphenyltetrazolium bromide (MTT) to formazan. The solution of MTT (5 mg/mL in PBS), was added to each well and the plates were incubated for 4h at 37 ^∘ C. Formazan crystals were dissolved with acidic isopropanol (0.1 M HCl in absolute isopropanol) and the plates were read in a plate reader (Victor 2) at 570 nm. The percentage of MTT reduction was calculated by comparing the absorbance of treated cells to that of untreated control cells. Results are expressed as the mean percentage of viable cells ± standard deviation (SD) of four independent experiments. Statistical significance was accepted at a p-value < 0.05.
(Formazan colour is commonly taken as a measure of viable cells.)
On to `CC1CC(=O)OC(c2ccccc2)C1Cl` (stereo not drawn) [5b, Trans,trans-5-chloro-tetrahydro-4-methyl-6-phenylpyran-2-one], for which the viability at 24 h, 0.1 μg/mL amounted to 35 ± 0.06%.

Staying with this data set, now noted: human, AGS cells (human gastric adenocarcinoma), 0.5 μg/mL, 24 h, read-out: mean percentage of viable cells ± SD.
Turning to `CC1CC(=O)OC(c2ccccc2)C1Cl` (stereo not drawn) [5b, Trans,trans-5-chloro-tetrahydro-4-methyl-6-phenylpyran-2-one], the viability at 24 h, 0.5 μg/mL is 20 ± 0.09%.

Staying with this data set, now noted: human, AGS cells (human gastric adenocarcinoma), 5 μg/mL, 24 h, read-out: mean percentage of viable cells ± SD.
On to `CC1CC(=O)OC(c2ccccc2)C1Cl` (stereo not drawn) [5b, Trans,trans-5-chloro-tetrahydro-4-methyl-6-phenylpyran-2-one], for which the viability at 24 h, 5 μg/mL turned out to be 16 ± 0.06%.

Staying with this data set, now noted: human, AGS cells (human gastric adenocarcinoma), 10 μg/mL, 24 h, read-out: mean percentage of viable cells ± SD.
For `CC1CC(=O)OC(c2ccccc2)C1Cl` (stereo not drawn) [5b, Trans,trans-5-chloro-tetrahydro-4-methyl-6-phenylpyran-2-one], the viability at 24 h, 10 μg/mL is 14 ± 0.12%.

The same data set, now with this note: human, AGS cells (human gastric adenocarcinoma), 20 μg/mL, 24 h, read-out: mean percentage of viable cells ± SD.
With `CC1CC(=O)OC(c2ccccc2)C1Cl` (stereo not drawn) [5b, Trans,trans-5-chloro-tetrahydro-4-methyl-6-phenylpyran-2-one], the viability at 24 h, 20 μg/mL came out at 11 ± 0.07%.

The same data set, now with this note: human, AGS cells (human gastric adenocarcinoma), 50 μg/mL, 24 h, read-out: mean percentage of viable cells ± SD.
On to `CC1CC(=O)OC(c2ccccc2)C1Cl` (stereo not drawn) [5b, Trans,trans-5-chloro-tetrahydro-4-methyl-6-phenylpyran-2-one], for which the viability at 24 h, 50 μg/mL was determined as 8 ± 0.09%.

The test system of another data set is AGS cell lines (human gastric adenocarcinoma). Briefly: MTT reduction cytotoxicity assay. The class given is cell-based.
Details: not given
How it is done:
as §2, §3
For `CC1CC(=O)OC(c2ccc(F)cc2)C1I` (stereo not drawn) [9c, Trans,trans-6-(4-fluorophenyl)-tetrahydro-5-iodo-4-methylpyran-2-one], it took 1400 nM to reach half-maximal inhibition (IC50).

The same data set, now with this note: 0.1 μg/mL, 24 h.
Take `CC1CC(=O)OC(c2ccc(F)cc2)C1I` (stereo not drawn) [9c, Trans,trans-6-(4-fluorophenyl)-tetrahydro-5-iodo-4-methylpyran-2-one]: the “mean percentage of viable cells ± SD” value came to 51 ± 0.10%.

The same data set, now with this note: 0.5 μg/mL, 24 h.
For `CC1CC(=O)OC(c2ccc(F)cc2)C1I` (stereo not drawn) [9c, Trans,trans-6-(4-fluorophenyl)-tetrahydro-5-iodo-4-methylpyran-2-one], the “mean percentage of viable cells ± SD” value came to 43 ± 0.15%.

The data set is the same for the next values; noted with them: 5 μg/mL, 24 h.
Regarding `CC1CC(=O)OC(c2ccc(F)cc2)C1I` (stereo not drawn) [9c, Trans,trans-6-(4-fluorophenyl)-tetrahydro-5-iodo-4-methylpyran-2-one], the “mean percentage of viable cells ± SD” value came out at 35 ± 0.10%.

Staying with this data set, now noted: 10 μg/mL, 24 h.
Take `CC1CC(=O)OC(c2ccc(F)cc2)C1I` (stereo not drawn) [9c, Trans,trans-6-(4-fluorophenyl)-tetrahydro-5-iodo-4-methylpyran-2-one]: the “mean percentage of viable cells ± SD” value stood at 23 ± 0.02%.

Staying with this data set, now noted: 20 μg/mL, 24 h.
Take `CC1CC(=O)OC(c2ccc(F)cc2)C1I` (stereo not drawn) [9c, Trans,trans-6-(4-fluorophenyl)-tetrahydro-5-iodo-4-methylpyran-2-one]: the “mean percentage of viable cells ± SD” value came to 18 ± 0.06%.

Staying with this data set, now noted: 50 μg/mL, 24 h.
As to `CC1CC(=O)OC(c2ccc(F)cc2)C1I` (stereo not drawn) [9c, Trans,trans-6-(4-fluorophenyl)-tetrahydro-5-iodo-4-methylpyran-2-one], the “mean percentage of viable cells ± SD” value is listed as 15 ± 0.03%.

The same data set, now with this note: Homo sapiens.
`CC1CC(=O)OC(c2ccccc2)C1Cl` (stereo not drawn) [5b, Trans,trans-5-chloro-tetrahydro-4-methyl-6-phenylpyran-2-one]: the IC50 (commonly the concentration needed to halve the response being measured) is 2300 nM.

Tested on in another data set: not listed separately
Briefly: MTT reduction cytotoxicity assay. The class given is cell-based, mouse. To be noted: mouse, L929 cells (mouse fibroblasts), 0.1 μg/mL, read-out: mean percentage of viable cells ± SD. The procedure:
as §2, §3
As for `CC1CC(=O)OC(c2ccccc2)C1Cl` (stereo not drawn) [5b, Trans,trans-5-chloro-tetrahydro-4-methyl-6-phenylpyran-2-one], the viability at 24 h, 0.1 μg/mL came out at 20 ± 0.08%.

The data set is the same for the next values; noted with them: mouse, L929 cells (mouse fibroblasts), 0.5 μg/mL, read-out: mean percentage of viable cells ± SD.
For the compound `CC1CC(=O)OC(c2ccccc2)C1Cl` (stereo not drawn) [5b, Trans,trans-5-chloro-tetrahydro-4-methyl-6-phenylpyran-2-one], the viability at 24 h, 0.5 μg/mL amounted to 18 ± 0.15%.

The same data set, now with this note: mouse, L929 cells (mouse fibroblasts), 20 μg/mL, read-out: mean percentage of viable cells ± SD.
Regarding `CC1CC(=O)OC(c2ccccc2)C1Cl` (stereo not drawn) [5b, Trans,trans-5-chloro-tetrahydro-4-methyl-6-phenylpyran-2-one], the viability at 24 h, 20 μg/mL was determined as 4 ± 0.02%.

The same data set, now with this note: mouse, L929 cells (mouse fibroblasts), 50 μg/mL, read-out: mean percentage of viable cells ± SD.
For the compound `CC1CC(=O)OC(c2ccccc2)C1Cl` (stereo not drawn) [5b, Trans,trans-5-chloro-tetrahydro-4-methyl-6-phenylpyran-2-one], the viability at 24 h, 50 μg/mL turned out to be 1 ± 0.03%.

The next data set has as its system L929 cell lines (mouse fibroblasts). Description: MTT reduction cytotoxicity assay. To be noted: 0.1 μg/mL, 24 h. Format: cell-based. The procedure:
as §2, §3
With `CC1CC(=O)OC(c2ccc(F)cc2)C1I` (stereo not drawn) [9c, Trans,trans-6-(4-fluorophenyl)-tetrahydro-5-iodo-4-methylpyran-2-one], the “mean percentage of viable cells ± SD” value stood at 15 ± 0.03%.

The data set is the same for the next values; noted with them: 0.5 μg/mL, 24 h.
On to `CC1CC(=O)OC(c2ccc(F)cc2)C1I` (stereo not drawn) [9c, Trans,trans-6-(4-fluorophenyl)-tetrahydro-5-iodo-4-methylpyran-2-one], for which the “mean percentage of viable cells ± SD” value was determined as 12 ± 0.08%.

Still in this data set, the particulars now being: 5 μg/mL, 24 h.
`CC1CC(=O)OC(c2ccc(F)cc2)C1I` (stereo not drawn) [9c, Trans,trans-6-(4-fluorophenyl)-tetrahydro-5-iodo-4-methylpyran-2-one]: the “mean percentage of viable cells ± SD” value was 9 ± 0.06%.

For the compound `CC1CC(=O)OC(c2ccccc2)C1Cl` (stereo not drawn) [5b, Trans,trans-5-chloro-tetrahydro-4-methyl-6-phenylpyran-2-one], the “mean percentage of viable cells ± SD” value came to 12 ± 0.05%.

The same data set, now with this note: 10 μg/mL, 24 h.
Take `CC1CC(=O)OC(c2ccc(F)cc2)C1I` (stereo not drawn) [9c, Trans,trans-6-(4-fluorophenyl)-tetrahydro-5-iodo-4-methylpyran-2-one]: the “mean percentage of viable cells ± SD” value came out at 6 ± 0.03%.

On to `CC1CC(=O)OC(c2ccccc2)C1Cl` (stereo not drawn) [5b, Trans,trans-5-chloro-tetrahydro-4-methyl-6-phenylpyran-2-one], for which the “mean percentage of viable cells ± SD” value came out at 7 ± 0.06%.

The same data set, now with this note: 20 μg/mL, 24 h.
`CC1CC(=O)OC(c2ccc(F)cc2)C1I` (stereo not drawn) [9c, Trans,trans-6-(4-fluorophenyl)-tetrahydro-5-iodo-4-methylpyran-2-one]: the “mean percentage of viable cells ± SD” value was 3 ± 0.09%.

The same data set, now with this note: 50 μg/mL, 24 h.
`CC1CC(=O)OC(c2ccc(F)cc2)C1I` (stereo not drawn) [9c, Trans,trans-6-(4-fluorophenyl)-tetrahydro-5-iodo-4-methylpyran-2-one]: the “mean percentage of viable cells ± SD” value came out at 1 ± 0.05%.

Tested on in another data set: not listed separately
Briefly: Observation of purified γ-iodo-δ-lactone isomers (decomposition, translactonization). Format: physicochemical. Conditions: purified trans,trans and cis,trans γ-iodo-δ-lactones; residue an equimolar mixture of trans and cis hydroxylactones. The procedure: Iodolactonization of 4a–c acids was carried out with I2/KI and NaHCO3 in a water/diethyl ether mixture. […] The yield of reactions was in the range of 69–85%. The reaction conditions prevented the direct synthesis of these compounds because the reaction was carried out in an alkaline solution, whereas hydroxylactonization requires an acidic environment. […] and predominantly formed in this reaction. The excess of trans-isomer is usually observed in the synthesis of γ -lactones. However, the reaction initially gave δ -iodo- γ -lactones, which, through a translactonization reaction, were transformed into the final products–hydroxylactones 12a and 13a. This was confirmed by observations of purified isomers trans,trans and cis,trans γ -iodo- δ -lactones 9b and 10b, and 9c and 10c. […] The carbocation was stabilized by the electron lone pairs of the oxygen atom present in the water molecule. The preparation of hydroxylactones from iodolactones has been described thus far only for biotransformation experiments. The synthesis described here allows obtaining these compounds without microorganisms.
With `CC1CC(=O)OC(c2ccc(F)cc2)C1I` (stereo not drawn) [9c, Trans,trans-6-(4-fluorophenyl)-tetrahydro-5-iodo-4-methylpyran-2-one], the “stability of purified isomer (in words)” value is “rapid decomposition with release of iodine”.

Tested on in another data set: not given
Experiment: not given
Details: not given
As for `CC1CC(=O)OC(c2ccccc2)C1Cl` (stereo not drawn) [5b, Trans,trans-5-chloro-tetrahydro-4-methyl-6-phenylpyran-2-one], the melting point – broadly, the temperature, or range, at which the solid turns liquid – is 105 to 106.5 °C.
